Patent publication US20030021796A1, “Method of enhancing T cell immunity by selection of antigen specific T cells” (priority 2001, published 2003)
“Also recorded” adds a separate entry of the source.

Columns and labels:
[1] = system: TCR^TgTCRα^− lymph node cells; test: Proliferation of TCR transgenic lymph node cells stimulated with agonist peptides ([3H]thymidine incorporation); assay type: cell-based, mouse
Method: Antigen response of TCR transgenic cells. Proliferation of lymph node cells isolated from TCR^TgTCRα^−and TCR^TgTCRα^−2-M^−Ii^− mice injected with the selecting peptide was measured in response to antigen. Response of the TCR^TgTCRα^− lymph node cells to different agonist peptides was measured by proliferation assay in a 96-well plate. 10^5 responder cells were stimulated with peptides presented by 5×10^5 irradiated C57BL6 splenocytes. Agonist peptides were used at concentrations of 0.01, 0.1, 0.5, 1.0, 2.5, 5.0, 10.0 and 20.0 μM. After 3 days cells were pulsed with 1 μCi of [^3H]thymidine added to each well and after 18 hours thymidine incorporation was measured. The sequences of peptides used were: PCC50V (AEGFSYTVANKNKGIT), PCC50L (AEGFSYTLANKNKGIT), PCC50V54A (AEGFSYTVANKAKGIT), PCC46A49A50V54A (AEGASYAVANKAKGIT), PCC50F54A (AEGFSYTFANKAKGIT), neutral ceramidase (AGFFQYTLYILASEG) and IgGVH (NADFKTPATLTVDKA). All peptides were synthesized by FMOC (fluorenyl methoxycarbonyl) chemistry and purified by reversed-phase high-performance liquid chromatography. To compare the antigenic response of CD4^+ TCR Tg cells lymph node cells were collected from TCR^TgTCRα^− and TCR^TgTCRα^−H2-M^−Ii^− mice two weeks after peptide injection. Single cell suspensions were prepared and CD4^+ cells were sorted using magnetic beads coated with anti CD4 antibodies (MACS). Purity of sorted cells exceeded 85%. 2×10^4 of purified CD4^+ cells were used in proliferation assay. Cells were stimulated with increasing concentrations of agonist peptides presented by APCs from wild type or H2-M^−Ii^− mice. IgGVH derived peptide (20 μM) was used as a negative control. Peptides were presented by irradiated splenocytes from a C57BL6 mouse. Proliferation was measured after 3 days by thymidine incorporation by pulsing cells with 1 μCi of [^3H] thymidine for 18 hours. Antagonism assay was done by prepulsing 5×10^5 antigen-presenting cells per well for 2 hr. with 5 μM of the antigenic peptide PCC50V54A, washing, and then exposing them to varying concentrations of peptide analogs with 2×10^4 purified CD4^+ TCR^Tg lymphocytes as responder cells (Lyons et al., 1996). For antagonism assays the percent of proliferation inhibition was calculated as 100-100*(thymidine incorporation in the presence of antagonist/thymidine incorporation in the absence of antagonist) (Lyons et al., 1996).

[2] = system: transgenic CD4^+ thymocytes; test: Positive selection of CD4^+ thymocytes after peptide injection into TCR^TgTCRα^−H2-M^−Ii^− mice (flow cytometry of thymus); assay type: in vivo, mouse
Description: Mice. The TCR genes were cloned from T cell hybridoma specific for analogs of the PCC(43-58) peptide and expressed in VA-hCD2 cassette (Ignatowicz et al., 1997; Kraj et al., 2001; Zhumabekov et al., 1995). All TCR transgenic mice were made by co-microinjection of the respective […] and TCRβ constructs into fertilized eggs of F1 (C57BL/6×CBA/Ca) mice. TCR Tg mice were crossed to C57B16/TCRα^− (Jackson Laboratory, ME) mice and to mice deficient in H2-M (kindly provided by E. Bikoff and R. Germain) and Ii (kindly provided by L. van Kaer) to obtain TCR^TgTCRα^− H2-M^−Ii^−.
(§1) Flow cytometry analysis. Monoclonal antibodies specific for CD4(RM4-5), CD8(53-6.7), VβB8(F23.1), CD69(H1.2F3), CD44(IM7) and CD62L(MEL-14) were purchased from PharMingen (San Diego, Calif.) and used according to manufacturer's recommendations. Cells were analyzed using a FACSCalibur instrument (Becton Dickinson, San Jose, Calif.) and CellQuest software. For intracellular stain cells were first stained for CD4 and CD8, fixed in 2% paraformaldehyde, permeabilized in 0.1% Tween-20 and stained with anti-bcl-2 antibody (Pharmingen) according to manufacturer instruction.
(§2) Peptide injections and surgical procedures. TCR^TgTCRα^− and TCR^TgTCRαH2-M^−Ii^− were injected i.p. with agonist and control peptides dissolved in PBS. After indicated time mice were sacrificed, thymus and lymph nodes were collected and single cell suspensions were prepared. Pups were injected with 2 μg of peptide subcutaneously 12-24 hours after birth and thymi were transplanted into recipient mice 24 hours after injection. 5-8 week old TCR^TgTCRα^− H2-M^−Ii^− mice were used for thymectomy or as thymic transplant recipients. Surgical procedures were performed as described (Coligan et al., 1997). Mice were handled according with the institutional guidance.

lymph node cells = test: Repopulation of peripheral lymph nodes in peptide-injected TCR^TgTCRα^−H2-M^−Ii^− mice; assay type: in vivo, mouse
Method: as §1, §2

[3] = system: transgenic CD4^+ thymocytes; test: Neonatal thymic organ cultures (NTOC) from peptide-injected TgTCRα^−H-2M^−Ii^− neonates; assay type: cell-based, mouse; conditions: single i.p. injection just after birth, thymus harvested 24 hours later
Description: The TgTCRα^−H-2M^−Ii^− system enables the visualization of thymocyte positive selection in real time and in the native intrathymic environment. An in vitro system was setup where the transgenic thymocytes undergo efficient positive selection and commit to the CD4^+ lineage. […] These observations agreed with the previous reports in which CD8^+, but not CD4+, T cells could be positively selected by the specific peptide in FTOCs (Kenty et al., 1998; Liblau et al, 1996). Therefore, neonatal thymic organ cultures (NTOC) were established from TgTCRα^−-H-2M^−Ii^− neonates. The neonates received a single i.p. injection of the PCC50V54A peptide just after birth and were sacrificed 24 hours later when their thymuses were harvested.

[4] = system: peptide selected CD4^+ cells; test: Antigen response (proliferation) of lymph node CD4^+ cells from peptide-injected TCR^TgTCRα^−H2-M^−Ii^− mice; assay type: cell-based, mouse
Method: Antigen response of TCR transgenic cells. Proliferation of lymph node cells isolated from TCR^TgTCRα^−and TCR^TgTCRα^−2-M^−Ii^− mice injected with the selecting peptide was measured in response to antigen. Response of the TCR^TgTCRα^− lymph node cells to different agonist peptides was measured by proliferation assay in a 96-well plate. 10^5 responder cells were stimulated with peptides presented by 5×10^5 irradiated C57BL6 splenocytes. Agonist peptides were used at concentrations of 0.01, 0.1, 0.5, 1.0, 2.5, 5.0, 10.0 and 20.0 μM. After 3 days cells were pulsed with 1 μCi of [^3H]thymidine added to each well and after 18 hours thymidine incorporation was measured. The sequences of peptides used were: PCC50V (AEGFSYTVANKNKGIT), PCC50L (AEGFSYTLANKNKGIT), PCC50V54A (AEGFSYTVANKAKGIT), PCC46A49A50V54A (AEGASYAVANKAKGIT), PCC50F54A (AEGFSYTFANKAKGIT), neutral ceramidase (AGFFQYTLYILASEG) and IgGVH (NADFKTPATLTVDKA). […] Proliferation was measured after 3 days by thymidine incorporation by pulsing cells with 1 μCi of [^3H] thymidine for 18 hours. […] For antagonism assays the percent of proliferation inhibition was calculated as 100-100*(thymidine incorporation in the presence of antagonist/thymidine incorporation in the absence of antagonist) (Lyons et al., 1996).

[5] = one i.p. injection of 50 μg, 24 hours

For “AEGFSYTVANKAKGIT [PCC50V54A, analog of pigeon cytochrome C peptide PCC(43-58)]”, the “agonist potency / agonist properties” value ([1]; in vitro stimulation of transgenic T cells) was “strong agonist”, the “recognition by the transgenic TCR / stimulation of transgenic cells” value ([1]; peptides presented by irradiated C57BL6 splenocytes) was “recognizes; also recorded: stimulate” and the “cellularity of the thymus and number of apoptotic cells (TUNNEL assay and annexin V staining)” value ([2]; 20 μg, compared with controls) was “the same”. For the same sequence, the “expression of TCR, CD69, bcl-2 on thymocytes” value ([2]; after injection of selecting peptide (20 μg, 48 hours)) was “became bcl-2+; also recorded: upregulated CD69 and bcl-2 expression; also recorded: upregulated TCR and CD69 expression; also recorded: Bcl-2 was upregulated”, the “positive selection of transgenic thymocytes” value ([2]; i.p., non-deleting dose (20 μg)) was “restored selection of CD4^+ single positive thymocytes” and the “CD25 phenotype of newly selected CD4^+ thymocytes” value ([2]; mouse, in vivo) was “CD25^−”. For the same sequence, the “differentiation of thymocytes into single positive CD4^+ cells” value [2, 5] was “differentiate into single positive CD4^+ cells”, the “total number of thymocytes” value [2, 5] was 161.5×10^6±54.4 and the “total number of thymocytes” value ([2]; one i.p. injection of 50 μg, 48 hours) was 142.5×10^6±44.9. For the same sequence, the “duration of positive selection of CD4^+ thymocytes after a single injection” value ([2]; single injection) was 14 days, the “CD4^+ cells in peripheral lymph nodes” value (lymph node cells; after i.p. injection, about two weeks) was “increase in the number of CD4^+ cells” and the “phenotype of peripheral CD4^+ cells (CD44, CD62L)” value (lymph node cells; mouse, in vivo) was “had naïve phenotype”. The “total number of lymph node cells” value (lymph node cells; two weeks after injection) was 44.1×10^6±9.8, the “duration of continuous positive selection of CD4^+ thymocytes in NTOC” value [3] was 4 to 5 days and the “response of peptide selected CD4^+ cells to agonist peptides in vitro” value [4] was “functional and respond to agonist peptides; also recorded: weakly respond in vitro”.
